Results taken from patent publication US10947596B2, “Compositions and methods for identification, assessment, prevention, and treatment of cancer using NFS1 biomarkers and modulators” (Dana-Farber Cancer Institute, Inc., priority 2014, dated 2021).
Entries after “also recorded” stand apart in the source; their conditions may differ.

What was measured:
[1] = test system: PTGS2; settings: cited from earlier work
[2] = test system: ferroptosis; settings: cited from earlier work
[3] = test system: aconitase; test: Aconitase activity colorimetric assay in MKN74 lysates; assay type: cell-based; settings: MKN74, constitutive shRNA or cDNA lentivirus, seven days post-infection
Description: Aconitase activity was assessed three to eleven days post-infection or dox induction in one million cells using the Aconitase Activity calorimetric Assay Kit (Biovision K716-100). Succinate dehydrogenase activity was assessed using the Succinate Dehydrogenase Activity Colorimetric Assay Kit (Biovision K660-100).
(§1) In order to confirm that such pharmacodynamic markers associated with NFS1 can be used as adjuncts or surrogate markers for directly assessing NFS1 modulation, several experiments were performed. […] The stable lines were replated at 3 days post-dox, cultured for 3 days further, and assessed for NFS1 mRNA knockdown (top right panel) or PTGS2 (Cox2) mRNA levels (bottom right panel) by q-RT-PCR. […]
Similarly, after 7 days of NFS1 knockdown, decreases in aconitase activity and ferritin protein levels, along with upregulation of TFRC protein we observed (FIG. 15). […] These cells were then either lysed in RIPA buffer, quantified, and equally loaded on a SDS-PAGE gel for analysis by Western by staining for TfRC, NFS1, FTL, or GAPDH (loading control); or trypsinized, counted, lysed, and analyzed for aconitase activity. […] These cells were then either lysed in RIPA buffer, quantified, and equally loaded on a SDS-PAGE gel for analysis by Western and staining for NFS1 and GAPDH; or trypsinized, counted, lysed and analyzed for succinate dehydrogenase activity and aconitase activity. […]

[4] = test system: MKN74 cells; test: Clonogenic growth assay in MKN74 cells; assay type: cell-based; settings: MKN74 stable shRNA lines infected with constitutive cDNA lentivirus (GFP, WT NFS1 or NFS1^C381A), thirteen days post-doxycycline
Description: Clonogenic assays were performed for longer-term assessment of proliferative phenotypes. Three days following doxycycline (dox)-induction (of stable, inducible shRNA lines using 0.5 ug/mL dox) or infection (for constitutive shRNA expression), cells were trypsinized, counted (Countess Automated Cell Counter. Life Technologies), and re-plated in duplicate or triplicate in 6-well dishes at 750 to 3000 cells per well, depending on cell line. Clonogenic growth was monitored by RFP (pRSIT12 vector) or GFP (pRSI6 vector) expression at 1 week intervals using a laser scanning cytometer to measure colony area and numbers of colonies per well (IsoCyte, ImageXpress Velos). Two to three weeks after plating cells, cells were stained using crystal violet as an additional visualization of colony formation. […]
Knockdown of NFS1 inhibits clonogenic cell growth. […] Three days post-dox-induction, cells were trypsinized, counted, and plated at low density (750 cells per well of a 6-well dish) for assaying clonogenic growth. Additional cells were also collected and assessed by q-RT-PCR for NFS1 knockdown. Clonogenic growth (relative colony area shown in FIG. 5, as well as the number of objects) was monitored by red fluorescent protein (RFP) expression over two weeks scanning the plates on a laser scanning cytometer (IsoCyte, ImageXpress Velos). […]

[5] = test system: ferritin; test: Western blot for ferritin (FTH1/FTL) in MKN74; assay type: cell-based; settings: MKN74, constitutive shRNA or cDNA lentivirus, seven days post-infection
Description: Cells were lysed in NP-40 lysis buffer (Boston BioProducts) supplemented with 1× Halt Protease/Phosphatase Inhibitor Cocktail (Pierce Biotechnology, Inc.), 1 mM Dithiothreitol, and 1 mM Phenylmethanesulfonylfluoride. Lysates were cleared by centrifugation and quantified using a BCA Protein Assay Kit (Pierce Biotechnology, Inc.). Lysates were resolved by SDS-PAGE (using Mini-Protean TGX gradient gels, Bio-Rad Laboratories), transferred to nitrocellulose (using the iBlot Gel, Transfer Device and Dry Blotting System, Life Technologies) and blocked in 5% nonfat milk (Blotting-Grade Blocker, Bio-Rad). […] Peroxidase-conjugated secondary antibodies (Donkey anti-rabbit IgG or Donkey anti-mouse IgG, Jackson ImmunoResearch Laboratories, Inc.) were used at 1:5000 in 5% blocking solution, and protein bands were detected using Pico SuperSignal West Pico Chemiluminescent substrate (Thermo Scientific, Pierce Biotechnology, Inc.).
as §1

[6] = test system: HIF2alpha; test: Western blot for HIF2alpha in C2BBE1 cells; assay type: cell-based; settings: parental C2BBE1 cells, treatment for 24 hours, relative to untreated

## COC(=O)c1ccc([C@H]2c3[nH]c4ccccc4c3C[C@H](C(=O)OC)N2C(=O)CCl)cc1 [1S3R-RSL3, (1S,3R)-RSL3]
[1]
  PTGS2 expression: upregulation
[2]
  ferroptosis: induce ferroptosis

## NFS1^C381A: mutant NFS1 that is catalytically dead due to a C381A mutation, dominant negative, expressed from lentiviral cDNA
[3]
  aconitase activity: decrease
[4]
  clonogenic growth: growth inhibitory effects comparable to that of NFS1-sh5; also recorded: strongly inhibited cell growth
[5]
  ferritin (FTH1) levels: decrease

## [Cl][Co][Cl] [cobalt chloride]
[6]
  HIF2alpha levels: modulation of HIF2alpha levels
